In patent US11253497B2, “Use of derivatives of polyunsaturated fatty acids as medicaments” (Lipopharma Therapeutics, S.L., priority 2009, dated 2022):

How the values were obtained:
[1] = test system: Spontaneously Hypertensive Rats (SHR); experiment: Blood pressure of SHR rats (cuff-tail method); format: in vivo, rat; conditions: 200 mg/kg day p.o., 30 days, before treatment 214 mmHg
How it was run: (§1)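 SHR rats dosed orally at 200 mg/kg day for 30 days against water vehicle. At study end, blood pressure taken non-invasively by tail cuff and apoA-I assessed as gene expression by RT-PCR.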

[2] = test system: apolipoprotein AI (apoA-I); experiment: Levels of apoA-I in SHR rats (RT-PCR); format: in vivo, rat; conditions: 200 mg/kg day p.o., 30 days, before treatment 100%
How it was run: as §1

[3] = test system: P19 cells; experiment: NMDA-induced neuronal death in P19 cells; format: cell-based; conditions: for Neuronal death (P19 cells) after treatment with NMDA: NMDA alone 100% death, control without NMDA 0%, negative values = proliferation
[4] = test system: lung cancer cells A549; experiment: Growth of lung cancer cells A549 (IC50); format: cell-based, human; conditions: 72 hours of incubation
How it was run: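 Cell counts taken with compound, mean of three independent experiments. Applies to A549 (RPMI 1640, 10% FBS, 37 °C, 5% CO2).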

[5] = test system: brain cancer cell (glioma) U118; experiment: Brain cancer (glioma) U118 cell growth; format: cell-based; conditions: 72 hours of incubation
How it was run: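 Cell counts taken with compound, mean of three independent experiments. Applies to U118.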

[6] = test system: Alzh mice; experiment: Radial maze in animal model of Alzheimer's disease (Alzh mice); format: in vivo; conditions: animals with Alzheimer's disease, 20 mg/kg daily po, 3 months
Source text: On the vertical axis it is represented the neuronal death (% of control) depending on the fatty acid used (x-axis). The presence of PUFAs induced modest increases in the survival of P19 cells in the presence of NMDA. D-PUFAs induced significant increases in cell survival values, exceeding in more than 200% in the case of 226A1. Since the number of cells in cultures treated cells is higher than in control cells, it may be affirmed that these compounds not only prevent neuronal death induced by NMDA (anti-neurodegenerative) but also are neuroregenerative agents. […] In the Y axis of the left figure it is shown the time taken to complete the exercise and in the vertical Y axis of the right figure the total number of errors made in the implementation of programmed exercise (mean standard error of the mean) (runtime). In both figures, from left to right, it is represented in the X axis the results in healthy mice (control) (first column), in mice with induced Alzheimer and treated with water as vehicle (second column) or in mice treated with the compound 226B1 (third column). Animals with Alzheimer's disease took longer and made more errors than healthy mice, being the differences statistically significant (*, P<0.05).
To test the efficacy of the compounds of the present invention to induce neuroregeneration or inhibit neurodegeneration, an animal model of Alzheimer's disease was used. In this model mice develop neurodegeneration because they express a series of mutant proteins that lead to brain damage (Alzh mice). B6 mice were used as healthy animal controls. Both groups of animals were treated for a period of 3 months with vehicle (water) or with various D-PUFA (20 mg/kg, daily po) since they were an age of 3 months. To determine whether cognitive improvement occurred after treatment, animal behaviour was monitored in the radial maze. The animals are kept on restricted diet to have appetite. In a symmetrical 8-arm radial maze, visual marks were placed to facilitate the orientation of the animal and food (15 mg tablet) was put in four of the arms. The time each animal took to complete the exercise, and the number of errors, were measured using a camera attached to a computer system. In this sense, Alzheimer animals have values about 50% higher than healthy animals, both by the time it takes to perform the exercise and by the number of errors made (FIG. 4B). […] In this regard, the effectiveness of the compound 183B1, 205A1, 205B1, 226A1, 226 V1 was also tested, showing improvements in animals with Alzheimer's disease (times of 98, 92, 93, 86 and 89 seconds, respectively). […]

[7] = test system: breast cancer cells MDA-MB-231; experiment: Growth of breast cancer cells MDA-MB-231; format: cell-based; conditions: 72 hours of incubation
How it was run: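 Cell counts taken with compound, mean of three independent experiments. Applies to MDA-MB-231.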

[8] = Lamellar-to-hexagonal (HII) transition temperature in DEPE model membranes by Differential Scanning Calorimetry; format: physicochemical; conditions: for Temperature of lamellar-to-hexagonal transition: DEPE membranes, DEPE:D-PUFA 10:1 (mol:mol); for Transition temperature (lamellar to HII): DEPE (4 mM), 200 μM compound, series A, control 64.5
How it was run: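 Lamellar-to-HII transition temperature of DEPE membranes measured by differential scanning calorimetry, with DEPE:fatty acid at 10:1 mol:mol. Control membranes contained no fatty acid.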

Row | SMILES | Blood pressure [1] [mm Hg] | Levels of apoA-I [2] [%] | Neuronal death (P19 cells) after treatment with NMDA [3] [%] | IC50 [4] [µM] | IC50 [5] [µM] | Time to complete the radial maze exercise [6] [s] | IC50 [7] [µM] | Temperature of lamellar-to-hexagonal transition [8] [°C] | IC50 ([4]; Homo sapiens, A549) [µM] | IC50 ([7]; Homo sapiens, MDA-MB-231) [µM] | Transition temperature (lamellar to HII) [8] [°C] | Increase in cell survival in the presence of NMDA (FIG. 4A) ([3]; P19 cells)
1 | CCC=CCC=CCC=CCCCCCCC(O)C(=O)[O-].[Na+] (stereo not drawn) [183B1] | 197 | 151 | −58 | 195 | 202 | 98 | 267 | 51.9 | – | – | – | –
2 | CCC=CCC=CCC=CCC=CCC=CCCC(O)C(=O)O (stereo not drawn) [205A1, 2-hydroxy-5,8,11,14,17-eicosapentaenoic acid] | 193 | 346 | −50 | – | 400 | 92 | – | – | 394 | 390 | 47.9 | –
3 | CCC=CCC=CCC=CCC=CCC=CCCC(O)C(=O)[O-].[Na+] (stereo not drawn) [205B1] | 187 | 264 | −52 | 202 | 391 | 93 | 208 | 48.3 | – | – | – | –
4 | CCC=CCC=CCC=CCC=CCC=CCC=CCC(O)C(=O)O (stereo not drawn) [226A1] | 194 | 324 | −230 | 195 | 214 | 86 | 187 | – | – | – | 44.4 | more than 200%
